Common to all, as to type: physicochemical
Series [1] in a line: Solubility of 5,10-MTHF in water. Here is the method:
(§1) 10 ml sterile water was added to the reference formulation lyophile of 5,10-MTHF and to each of the test formulation lyophiles to give a final concentration of 10 mg/ml (this dissolution volume and concentration corresponds to the most current recommended clinical use guidelines for 5,10-MTHF for cancer therapy). The nonformulated 5,10-MTHF was dissolved in water to a concentration of 6 mg/ml. The lower concentration of nonformulated 5,10-MTHF was due to the fact that nonformulated 5,10-MTHF has a maximum solubility in water of approximately 6 mg/ml (when dissolved in a trisodium citrate, 5,10-MTHF has a much higher (>10 mg/ml) solubility). Samples were stored at room temperature under ambient air conditions to mimic as close as possible expected real-world use.

A short description of series [2]: pH time course following dissolution in water. Particulars: for pH following dissolution in water: room temperature, ambient air. Here is the method:
as §1
The pH of 5,10-MTHF dissolved in water was measured at multiple time points using a digital pH meter.

The nature of series [3]: 5,10-MTHF stability following dissolution in water by HPLC. Particulars: for % Normalized Purity of 5,10-MTHF: room temperature. As to the method: as §1
The stability of 5,10-MTHF dissolved in water was measured by HPLC. Data is reported as the normalized purity of 5,10-MTHF based on the starting purity according to the following formula: % Normalized Purity=(% 5,10-MTHF Time X)÷(% 5,10-MTHF Time 0)×(100)
5,10-MTHF stability kinetics were estimated by linear regression analysis (GraphPad Prism software).

A value given as a limit tells only on which side of the number the result lay.

As to `Nc1nc2c(c(=O)[nH]1)N1CN(c3ccc(C(=O)N[C@@H](CCC(=O)O)C(=O)O)cc3)CC1CN2` (some centres unmarked) [Nonformulated, 5,10-methylenetetrahydrofolate], the “solubility when dissolved in trisodium citrate” value in series [1] (dissolved in a trisodium citrate) is > 10000 µg/mL. Moreover, in series [1] (nonformulated, water), the “maximum solubility in water” value was “approximately 6 mg/ml”. The “pH following dissolution in water” value was 6.88 in series [2] (0 hours); 6.89 in series [2] (0.25 hours); 6.87 in series [2] (0.5 hours); 6.85 in series [2] (0.75 hours); 6.83 in series [2] (1 hour); 6.77 in series [2] (2 hours). Also, the “pH following dissolution in water” value came out at 6.80 in series [2] (4 hours), 6.83 in series [2] (6 hours), 6.81 in series [2] (8 hours) and 6.79 in series [2] (24 hours). Moreover, the “pH following dissolution in water (approximate, text summary)” value in series [2] (starting and steady state pH over 24 hours) is given as ~6.9. Also, the “% Normalized Purity of 5,10-MTHF” value stood at 100.0% in series [3] (0 hours after dissolution in water); 94.9% in series [3] (0.5 hours after dissolution in water); 92.4% in series [3] (1 hour after dissolution in water); 90.3% in series [3] (2 hours after dissolution in water); 85.9% in series [3] (4 hours after dissolution in water); 77.8% in series [3] (8 hours after dissolution in water). Further, the “% Normalized Purity of 5,10-MTHF” value is 69.6% in series [3] (12 hours after dissolution in water), 55.1% in series [3] (18 hours after dissolution in water) and 44.9% in series [3] (24 hours after dissolution in water). Besides, the “Linear Regression Degradation Rate Following Dissolution in Water” value in series [3] (slope of best-fit line, 0-24 hours) was −2.2 % Purity/Hours.

These data come from patent US20090221594A1, “STABLE PHARMACEUTICAL COMPOSITIONS OF 5, 10 METHYLENETRAHYDROFOLATE” (priority 2005, published 2009).
